Measurements reported in patent publication US4450269A, “Mono-5-substituted-3-chloro-4H-1,2,6-thiadiazin-4-one antifungal agents” (FMC Corporation, priority 1980, dated 1984).
Where a name gives a salt, the structure may show the parent alone. Read-outs that look alike come from different tables or passages of the source.

Experiments:
Type in all cases: cell-based
Erysiphe polygoni = assay: Spore germination test; details: EP, 48 hours
How it was run: (§1)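 Compound in acetone was mixed into water agar at final 40, 10, 2.5 and 1 ppm and poured into quadrant dishes. Quadrants received spore suspension, while Erysiphe polygoni and Uromyces phaseoli spores were brushed on from infected leaves. After 48 h at 24 °C, the percentage of germinated spores was converted to a germination rating.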

Uromyces phaseoli = assay: Spore germination test; details: UP, 48 hours
How it was run: as §1

Phytophthora infestans = details: PI, 48 hours

3-chloro-5-[methylaminocarbonyloxy)phenoxyl]-4H-1,2,6-thiadiazin-4-one [Compound 36]
Spore Germination Rating (Erysiphe polygoni; 1.0 ppm): 4 (80-100)
Spore Germination Rating (Erysiphe polygoni; 2.5 ppm): 3 (60-80)
Spore Germination Rating (Erysiphe polygoni; 10 ppm): 1 (10-40)
Spore Germination Rating (Erysiphe polygoni; 40 ppm): 1 (10-40)
Spore Germination Rating (Uromyces phaseoli; 1.0 ppm): 4 (80-100)
Spore Germination Rating (Uromyces phaseoli; 2.5 ppm): 2 (40-60)
Spore Germination Rating (Uromyces phaseoli; 10 ppm): 0 (0-10)
Spore Germination Rating (Uromyces phaseoli; 40 ppm): 0 (0-10)
Spore Germination Rating (Phytophthora infestans; 1.0 ppm): 4 (80-100)
Spore Germination Rating (Phytophthora infestans; 2.5 ppm): 4 (80-100)
Spore Germination Rating (Phytophthora infestans; 10 ppm): 4 (80-100)
Spore Germination Rating (Phytophthora infestans; 40 ppm): 0 (0-10)

O=c1c(Cl)nsnc1Oc1ccccc1 [Compound 2, 3-chloro-5-phenoxy-4H--1,2,6-thiadiazin-4-one]
Spore Germination Rating (Erysiphe polygoni; 1.0 ppm): 4 (80-100)
Spore Germination Rating (Erysiphe polygoni; 2.5 ppm): 4 (80-100)
Spore Germination Rating (Erysiphe polygoni; 10 ppm): 3 (60-80)
Spore Germination Rating (Erysiphe polygoni; 40 ppm): 1 (10-40)
Spore Germination Rating (Uromyces phaseoli; 1.0 ppm): 2 (40-60)
Spore Germination Rating (Uromyces phaseoli; 2.5 ppm): 2 (40-60)
Spore Germination Rating (Uromyces phaseoli; 10 ppm): 0 (0-10)
Spore Germination Rating (Uromyces phaseoli; 40 ppm): 0 (0-10)
Spore Germination Rating (Phytophthora infestans; 1.0 ppm): 0 (0-10)
Spore Germination Rating (Phytophthora infestans; 2.5 ppm): 1 (10-40)
Spore Germination Rating (Phytophthora infestans; 10 ppm): 1 (10-40)
Spore Germination Rating (Phytophthora infestans; 40 ppm): 0 (0-10)

Cc1ccc(Oc2nsnc(Cl)c2=O)cc1 [Compound 3, 3-chloro-5-(4-methylphenoxy)-4H--1,2,6-thiadiazin-4-one]
Spore Germination Rating (Erysiphe polygoni; 1.0 ppm): 4 (80-100)
Spore Germination Rating (Erysiphe polygoni; 2.5 ppm): 4 (80-100)
Spore Germination Rating (Erysiphe polygoni; 10 ppm): 4 (80-100)
Spore Germination Rating (Erysiphe polygoni; 40 ppm): 1 (10-40)
Spore Germination Rating (Uromyces phaseoli; 1.0 ppm): 4 (80-100)
Spore Germination Rating (Uromyces phaseoli; 2.5 ppm): 1 (10-40)
Spore Germination Rating (Uromyces phaseoli; 10 ppm): 0 (0-10)
Spore Germination Rating (Uromyces phaseoli; 40 ppm): 0 (0-10)
Spore Germination Rating (Phytophthora infestans; 1.0 ppm): 3 (60-80)
Spore Germination Rating (Phytophthora infestans; 2.5 ppm): 2 (40-60)
Spore Germination Rating (Phytophthora infestans; 10 ppm): 0 (0-10)
Spore Germination Rating (Phytophthora infestans; 40 ppm): 0 (0-10)

CC(C)(C)c1ccc(Oc2nsnc(Cl)c2=O)cc1 [Compound 4, 3-chloro-5-(4-tert-butylphnoxy)-4H--1,2,6-thiadiazin-4-one]
Spore Germination Rating (Erysiphe polygoni; 1.0 ppm): 4 (80-100)
Spore Germination Rating (Erysiphe polygoni; 2.5 ppm): 3 (60-80)
Spore Germination Rating (Erysiphe polygoni; 10 ppm): 2 (40-60)
Spore Germination Rating (Erysiphe polygoni; 40 ppm): 0 (0-10)
Spore Germination Rating (Uromyces phaseoli; 1.0 ppm): 4 (80-100)
Spore Germination Rating (Uromyces phaseoli; 2.5 ppm): 4 (80-100)
Spore Germination Rating (Uromyces phaseoli; 10 ppm): 0 (0-10)
Spore Germination Rating (Uromyces phaseoli; 40 ppm): 0 (0-10)
Spore Germination Rating (Phytophthora infestans; 1.0 ppm): 4 (80-100)
Spore Germination Rating (Phytophthora infestans; 2.5 ppm): 3 (60-80)
Spore Germination Rating (Phytophthora infestans; 10 ppm): 0 (0-10)
Spore Germination Rating (Phytophthora infestans; 40 ppm): 0 (0-10)

COc1ccc(Oc2nsnc(Cl)c2=O)cc1 [Compound 5, 3-chloro-5-(4-methoxyphenoxy)4H--1,2,6-thiadiazin-4-one]
Spore Germination Rating (Erysiphe polygoni; 1.0 ppm): 4 (80-100)
Spore Germination Rating (Erysiphe polygoni; 2.5 ppm): 4 (80-100)
Spore Germination Rating (Erysiphe polygoni; 10 ppm): 4 (80-100)
Spore Germination Rating (Erysiphe polygoni; 40 ppm): 0 (0-10)
Spore Germination Rating (Uromyces phaseoli; 1.0 ppm): 1 (10-40)
Spore Germination Rating (Uromyces phaseoli; 2.5 ppm): 1 (10-40)
Spore Germination Rating (Uromyces phaseoli; 10 ppm): 0 (0-10)
Spore Germination Rating (Uromyces phaseoli; 40 ppm): 0 (0-10)
Spore Germination Rating (Phytophthora infestans; 1.0 ppm): 2 (40-60)
Spore Germination Rating (Phytophthora infestans; 2.5 ppm): 2 (40-60)
Spore Germination Rating (Phytophthora infestans; 10 ppm): 2 (40-60)
Spore Germination Rating (Phytophthora infestans; 40 ppm): 0 (0-10)

CCCCOc1ccc(Oc2nsnc(Cl)c2=O)cc1 [Compound 6, 3-chloro-5-(4-n-butoxyphenoxy)-4H--1,2,6-thiadiazin-4-one]
Spore Germination Rating (Erysiphe polygoni; 1.0 ppm): 0 (0-10)
Spore Germination Rating (Erysiphe polygoni; 2.5 ppm): 0 (0-10)
Spore Germination Rating (Erysiphe polygoni; 10 ppm): 0 (0-10)
Spore Germination Rating (Erysiphe polygoni; 40 ppm): 0 (0-10)
Spore Germination Rating (Uromyces phaseoli; 1.0 ppm): 1 (10-40)
Spore Germination Rating (Uromyces phaseoli; 2.5 ppm): 0 (0-10)
Spore Germination Rating (Uromyces phaseoli; 10 ppm): 0 (0-10)
Spore Germination Rating (Uromyces phaseoli; 40 ppm): 0 (0-10)
Spore Germination Rating (Phytophthora infestans; 1.0 ppm): 2 (40-60)
Spore Germination Rating (Phytophthora infestans; 2.5 ppm): 0 (0-10)
Spore Germination Rating (Phytophthora infestans; 10 ppm): 0 (0-10)
Spore Germination Rating (Phytophthora infestans; 40 ppm): 0 (0-10)

CCOC(=O)c1ccc(Oc2nsnc(Cl)c2=O)cc1 [Compound 7, 3-chloro-5-(4-ethoxycarbonylphenoxy)-4H--1,2,6-thiadiazin-4-one]
Spore Germination Rating (Erysiphe polygoni; 1.0 ppm): 4 (80-100)
Spore Germination Rating (Erysiphe polygoni; 2.5 ppm): 3 (60-80)
Spore Germination Rating (Erysiphe polygoni; 10 ppm): 2 (40-60)
Spore Germination Rating (Erysiphe polygoni; 40 ppm): 0 (0-10)
Spore Germination Rating (Uromyces phaseoli; 1.0 ppm): 0 (0-10)
Spore Germination Rating (Uromyces phaseoli; 2.5 ppm): 0 (0-10)
Spore Germination Rating (Uromyces phaseoli; 10 ppm): 0 (0-10)
Spore Germination Rating (Uromyces phaseoli; 40 ppm): 0 (0-10)
Spore Germination Rating (Phytophthora infestans; 1.0 ppm): 0 (0-10)
Spore Germination Rating (Phytophthora infestans; 2.5 ppm): 0 (0-10)
Spore Germination Rating (Phytophthora infestans; 10 ppm): 0 (0-10)
Spore Germination Rating (Phytophthora infestans; 40 ppm): 0 (0-10)

CC(=O)Nc1ccc(Oc2nsnc(Cl)c2=O)cc1 [Compound 8, 5-(4-acetylaminophenoxy)-3-chloro-4H--1,2,6-thiadiazin-4-one]
Spore Germination Rating (Erysiphe polygoni; 1.0 ppm): 4 (80-100)
Spore Germination Rating (Erysiphe polygoni; 2.5 ppm): 4 (80-100)
Spore Germination Rating (Erysiphe polygoni; 10 ppm): 4 (80-100)
Spore Germination Rating (Erysiphe polygoni; 40 ppm): 2 (40-60)
Spore Germination Rating (Uromyces phaseoli; 1.0 ppm): 4 (80-100)
Spore Germination Rating (Uromyces phaseoli; 2.5 ppm): 4 (80-100)
Spore Germination Rating (Uromyces phaseoli; 10 ppm): 0 (0-10)
Spore Germination Rating (Uromyces phaseoli; 40 ppm): 0 (0-10)
Spore Germination Rating (Phytophthora infestans; 1.0 ppm): 4 (80-100)
Spore Germination Rating (Phytophthora infestans; 2.5 ppm): 4 (80-100)
Spore Germination Rating (Phytophthora infestans; 10 ppm): 0 (0-10)
Spore Germination Rating (Phytophthora infestans; 40 ppm): 0 (0-10)

O=c1c(Cl)nsnc1Oc1ccc([N+](=O)[O-])cc1 [Compound 9, 3-chloro-5-(4-nitrophenoxy)-4H--1,2,6-thiadiazin-4-one]
Spore Germination Rating (Erysiphe polygoni; 1.0 ppm): 4 (80-100)
Spore Germination Rating (Erysiphe polygoni; 2.5 ppm): 4 (80-100)
Spore Germination Rating (Erysiphe polygoni; 10 ppm): 4 (80-100)
Spore Germination Rating (Erysiphe polygoni; 40 ppm): 4 (80-100)
Spore Germination Rating (Uromyces phaseoli; 1.0 ppm): 0 (0-10)
Spore Germination Rating (Uromyces phaseoli; 2.5 ppm): 0 (0-10)
Spore Germination Rating (Uromyces phaseoli; 10 ppm): 0 (0-10)
Spore Germination Rating (Uromyces phaseoli; 40 ppm): 0 (0-10)
Spore Germination Rating (Phytophthora infestans; 1.0 ppm): 0 (0-10)
Spore Germination Rating (Phytophthora infestans; 2.5 ppm): 0 (0-10)
Spore Germination Rating (Phytophthora infestans; 10 ppm): 0 (0-10)
Spore Germination Rating (Phytophthora infestans; 40 ppm): 0 (0-10)

N#Cc1ccc(Oc2nsnc(Cl)c2=O)cc1 [Compound 10, 3-chloro-5-(4-cyanophenoxy)-4H--1,2,6-thiadiazin-4-one]
Spore Germination Rating (Erysiphe polygoni; 1.0 ppm): 2 (40-60)
Spore Germination Rating (Erysiphe polygoni; 2.5 ppm): 2 (40-60)
Spore Germination Rating (Erysiphe polygoni; 10 ppm): 2 (40-60)
Spore Germination Rating (Erysiphe polygoni; 40 ppm): 1 (10-40)
Spore Germination Rating (Uromyces phaseoli; 1.0 ppm): 0 (0-10)
Spore Germination Rating (Uromyces phaseoli; 2.5 ppm): 0 (0-10)
Spore Germination Rating (Uromyces phaseoli; 10 ppm): 0 (0-10)
Spore Germination Rating (Uromyces phaseoli; 40 ppm): 0 (0-10)
Spore Germination Rating (Phytophthora infestans; 1.0 ppm): 0 (0-10)
Spore Germination Rating (Phytophthora infestans; 2.5 ppm): 0 (0-10)
Spore Germination Rating (Phytophthora infestans; 10 ppm): 0 (0-10)
Spore Germination Rating (Phytophthora infestans; 40 ppm): 1 (10-40)

O=c1c(Cl)nsnc1Oc1ccc(F)cc1 [Compound 11, 3-chloro-5-(4-fluorophenoxy)-4H--1,2,6-thiadiazin-4-one]
Spore Germination Rating (Erysiphe polygoni; 1.0 ppm): 0 (0-10)
Spore Germination Rating (Erysiphe polygoni; 2.5 ppm): 0 (0-10)
Spore Germination Rating (Erysiphe polygoni; 10 ppm): 0 (0-10)
Spore Germination Rating (Erysiphe polygoni; 40 ppm): 0 (0-10)
Spore Germination Rating (Uromyces phaseoli; 1.0 ppm): 4 (80-100)
Spore Germination Rating (Uromyces phaseoli; 2.5 ppm): 0 (0-10)
Spore Germination Rating (Uromyces phaseoli; 10 ppm): 0 (0-10)
Spore Germination Rating (Uromyces phaseoli; 40 ppm): 0 (0-10)
Spore Germination Rating (Phytophthora infestans; 1.0 ppm): 4 (80-100)
Spore Germination Rating (Phytophthora infestans; 2.5 ppm): 0 (0-10)
Spore Germination Rating (Phytophthora infestans; 10 ppm): 0 (0-10)
Spore Germination Rating (Phytophthora infestans; 40 ppm): 0 (0-10)

O=c1c(Cl)nsnc1Oc1ccc(Cl)cc1 [Compound 12, 3-chloro-5-(4-chlorophenoxy)-4H--1,2,6-thiadiazin-4-one]
Spore Germination Rating (Erysiphe polygoni; 1.0 ppm): 4 (80-100)
Spore Germination Rating (Erysiphe polygoni; 2.5 ppm): 4 (80-100)
Spore Germination Rating (Erysiphe polygoni; 10 ppm): 2 (40-60)
Spore Germination Rating (Erysiphe polygoni; 40 ppm): 0 (0-10)
Spore Germination Rating (Uromyces phaseoli; 1.0 ppm): 1 (10-40)
Spore Germination Rating (Uromyces phaseoli; 2.5 ppm): 1 (10-40)
Spore Germination Rating (Uromyces phaseoli; 10 ppm): 0 (0-10)
Spore Germination Rating (Uromyces phaseoli; 40 ppm): 0 (0-10)
Spore Germination Rating (Phytophthora infestans; 1.0 ppm): 1 (10-40)
Spore Germination Rating (Phytophthora infestans; 2.5 ppm): 1 (10-40)
Spore Germination Rating (Phytophthora infestans; 10 ppm): 1 (10-40)
Spore Germination Rating (Phytophthora infestans; 40 ppm): 0 (0-10)

O=c1c(Cl)nsnc1Oc1cccc(Cl)c1 [Compound 13, 3-chloro-5-(3-chlorophenoxy)-4H--1,2,6-thiadiazin-4-one]
Spore Germination Rating (Erysiphe polygoni; 1.0 ppm): 4 (80-100)
Spore Germination Rating (Erysiphe polygoni; 2.5 ppm): 2 (40-60)
Spore Germination Rating (Erysiphe polygoni; 10 ppm): 0 (0-10)
Spore Germination Rating (Erysiphe polygoni; 40 ppm): 0 (0-10)
Spore Germination Rating (Uromyces phaseoli; 1.0 ppm): 0 (0-10)
Spore Germination Rating (Uromyces phaseoli; 2.5 ppm): 0 (0-10)
Spore Germination Rating (Uromyces phaseoli; 10 ppm): 0 (0-10)
Spore Germination Rating (Uromyces phaseoli; 40 ppm): 0 (0-10)
Spore Germination Rating (Phytophthora infestans; 1.0 ppm): 0 (0-10)
Spore Germination Rating (Phytophthora infestans; 2.5 ppm): 0 (0-10)
Spore Germination Rating (Phytophthora infestans; 10 ppm): 0 (0-10)
Spore Germination Rating (Phytophthora infestans; 40 ppm): 0 (0-10)

Nc1ccc(Oc2nsnc(Cl)c2=O)cc1 [Compound 27, 5-(4-aminophenoxy)-3-chloro-4H--1,2,6-thiadiazine-4-one hydrochloride]
Spore Germination Rating (Uromyces phaseoli; 1.0 ppm, hydrochloride): 4 (80-100)
Spore Germination Rating (Uromyces phaseoli; 2.5 ppm, hydrochloride): 1 (10-40)
Spore Germination Rating (Uromyces phaseoli; 10 ppm, hydrochloride): 1 (10-40)
Spore Germination Rating (Uromyces phaseoli; 40 ppm, hydrochloride): 0 (0-10)
Spore Germination Rating (Phytophthora infestans; 2.5 ppm, hydrochloride): 3 (60-80)
